Measurements reported in patent US20060069132A1, “Azolecarboxamide herbicides” (priority 2004, published 2006).

Tests used:
Assay in all cases: Test A pre-/postemergence herbicide test
barnyardgrass = type: in vivo, Echinochloa crus-galli
Text: (§1) Seeds of plant species selected from barnyardgrass (Echinochloa crus-galli (L.) Beauv.), downy bromegrass (Bromus tectorum L.), large crabgrass (Digitaria sanguinalis (L.) Scop.), giant foxtail (Setaria faberi Herrm.), morningglory (Ipomoea spp.), redroot pigweed (Amaranthus retroflexus L.) and velvetleaf (Abutilon theophrasti Medik.) were planted into a sandy loam soil and treated preemergence with a directed soil spray using test chemicals formulated in a non-phytotoxic solvent mixture which included a surfactant. At the same time plants selected from these species were also treated postemergence by spraying to runoff with test chemicals formulated.
(§2) Plants ranged in height from 2 to 10 cm and were in the one- to two-leaf stage for the postemergence treatment. Treated plants and untreated controls were maintained in a greenhouse for approximately ten days, after which time all treated plants were compared to untreated controls and visually evaluated for injury. Plant response ratings, summarized in Table A, are based on a 0 to 100 scale where 0 is no effect and 100 is complete control. A dash (-) response means no test results.

large crabgrass = type: in vivo, Digitaria sanguinalis
Text: as §1, §2

giant foxtail = type: in vivo, Setaria faberi
Text: as §1, §2

redroot pigweed = type: in vivo, Amaranthus retroflexus
Text: as §1, §2

velvetleaf = type: in vivo, Abutilon theophrasti
Text: as §1, §2

morningglory = type: in vivo, Ipomoea spp.
Text: as §1, §2

[1] = Postemergence, 500 g ai/ha, 0 to 100 scale, 0 no effect, 100 complete control
[2] = Postemergence, 2000 g ai/ha, 0 to 100 scale, 0 no effect, 100 complete control
[3] = Preemergence, 500 g ai/ha, visual rating, 0 to 100 scale (0 no effect, 100 complete control)
[4] = Preemergence, 2000 g ai/ha, 0 to 100 scale, 0 no effect, 100 complete control
[5] = Preemergence, 2000 g ai/ha, visual rating, 0 to 100 scale (0 no effect, 100 complete control)
[6] = Postemergence, 125 g ai/ha, 0 to 100 scale, 0 no effect, 100 complete control
[7] = preemergence, 125 g ai/ha, visual injury, 0 to 100 scale (0 no effect, 100 complete control)
[8] = preemergence, 500 g ai/ha, visual injury, 0 to 100 scale (0 no effect, 100 complete control)

Compound	Plant response rating, Barnyardgrass (barnyardgrass; [2])	Barnyardgrass plant response rating (barnyardgrass; [3])	Plant response rating, Crabgrass, Large (large crabgrass; [2])	Crabgrass, Large plant response rating (large crabgrass; [3])	Plant response rating, Foxtail, Giant (giant foxtail; [2])	Foxtail, Giant plant response rating (giant foxtail; [3])	Plant response rating, Pigweed (redroot pigweed; [2])	Pigweed plant response rating (redroot pigweed; [3])	Plant response rating, Velvetleaf (velvetleaf; [2])	Velvetleaf plant response rating (velvetleaf; [3])	Plant response rating, Morningglory (morningglory; [2])	Morningglory plant response rating (morningglory; [3])	Barnyardgrass plant response rating (barnyardgrass; [1])	Crabgrass, Large plant response rating (large crabgrass; [1])	Foxtail, Giant plant response rating (giant foxtail; [1])	Pigweed plant response rating (redroot pigweed; [1])	Velvetleaf plant response rating (velvetleaf; [1])	Morningglory plant response rating (morningglory; [1])	other results
Cn1nc(C(C)(C)C)cc1C(=O)Nc1cccc2c1CNC2=O [Compound 53]	0	0	0	0	0	0	0	30	0	0	0	0	–	–	–	–	–	–	Plant response rating, Barnyardgrass (barnyardgrass; [1]): 0; Barnyardgrass plant response rating (barnyardgrass; [4]): 10; Plant response rating, Crabgrass, Large (large crabgrass; [1]): 5; Crabgrass, Large plant response rating (large crabgrass; [4]): 40; Plant response rating, Foxtail, Giant (giant foxtail; [1]): 0; Foxtail, Giant plant response rating (giant foxtail; [4]): 0; Plant response rating, Pigweed (redroot pigweed; [1]): 0; Pigweed plant response rating (redroot pigweed; [4]): 40; Velvetleaf plant response rating (velvetleaf; [4]): 0; Plant response rating, Morningglory (morningglory; [1]): 0; Morningglory plant response rating (morningglory; [4]): 0
CC(=NO)c1cccc(NC(=O)c2cc(C(F)(F)F)nn2C)c1 [Compound 103]	75	55	30	35	30	0	100	80	45	20	35	0	45	15	10	85	10	25	Barnyardgrass plant response rating (barnyardgrass; [5]): 85; Crabgrass, Large plant response rating (large crabgrass; [5]): 55; Foxtail, Giant plant response rating (giant foxtail; [5]): 15; Pigweed plant response rating (redroot pigweed; [5]): 95; Velvetleaf plant response rating (velvetleaf; [5]): 20; Morningglory plant response rating (morningglory; [5]): 10
CCNC(=O)c1ccc(F)c(NC(=O)c2nc(C(C)(C)C)nn2CC)c1 [Compound 447]	–	–	–	–	–	–	–	–	–	–	–	–	70	25	40	50	30	10	Barnyardgrass plant response rating (barnyardgrass; [6]): 25; Barnyardgrass plant response rating (barnyardgrass; [7]): 20; Barnyardgrass plant response rating (barnyardgrass; [8]): 60; Crabgrass, Large plant response rating (large crabgrass; [6]): 10; Crabgrass, Large plant response rating (large crabgrass; [7]): 0; Crabgrass, Large plant response rating (large crabgrass; [8]): 35; Foxtail, Giant plant response rating (giant foxtail; [6]): 10; Foxtail, Giant plant response rating (giant foxtail; [7]): 10; Foxtail, Giant plant response rating (giant foxtail; [8]): 45; Pigweed plant response rating (redroot pigweed; [6]): 40; Pigweed plant response rating (redroot pigweed; [7]): 10; Pigweed plant response rating (redroot pigweed; [8]): 50; Velvetleaf plant response rating (velvetleaf; [6]): 10; Velvetleaf plant response rating (velvetleaf; [7]): 0; Velvetleaf plant response rating (velvetleaf; [8]): 0; Morningglory plant response rating (morningglory; [6]): 5; Morningglory plant response rating (morningglory; [7]): 0; Morningglory plant response rating (morningglory; [8]): 0
